From ChEMBL document CHEMBL5303304, “EUbOPEN Chemogenomics Library - IncuCyte” (2023) come the findings set out here.

What all share (type): toxicity, cell-based
For one data set, the system named is Fibroblast. The data set is described as follows: Incucyte cell viability with human fibroblast. The following applies: 10 µM, compound concentration 10 uM.
The test system of the next data set is HEK-293T. As to the kind of experiment: Incucyte cell viability with HEK293T. Particulars: human, 10 µM, compound concentration 10 uM.
A further data set concerns U2OS. The data set is described as follows: Incucyte cell viability with U2OS. The following applies: human, 10 µM, compound concentration 10 uM.
Also: unitless GR value; below 1 slowed growth and below 0 cell loss.

In the case of `Cc1cn([C@H](C)CC#N)c(=O)c2cc(Cn3nc(C(F)F)cc3Cl)nn12`, the “Growth Rate” value in the data set with Fibroblast (0 h, replicate number 1) is on record as -1; in the data set with Fibroblast (6 h, replicate number 1), 0.89; in the data set on Fibroblast (6 h, replicate number 2), 0.78; with Fibroblast (12 h, replicate number 2), 0.58; with Fibroblast (18 h, replicate number 2), 0.99; in the data set on Fibroblast (24 h, replicate number 1), 0.93. For the same compound, the “Growth Rate” value is 0.81 with HEK-293T (6 h, replicate number 1); 0.66 with HEK-293T (6 h, replicate number 2); 0.82 in the data set with HEK-293T (12 h, replicate number 2); 0.9 in the data set on HEK-293T (18 h, replicate number 2); 0.97 in the data set on HEK-293T (24 h, replicate number 1); 0.89 with HEK-293T (24 h, replicate number 2). The “Growth Rate” value with U2OS (6 h, replicate number 1) amounted to 0.38; in the data set on U2OS (12 h, replicate number 1), 0.34; in the data set with U2OS (18 h, replicate number 1) it was 0.52; with U2OS (24 h, replicate number 1), 0.64.

Consider `CCN(C)C(=O)c1ccc2c(c1)NC(=O)/C2=C(\NC1CCN(C)CC1)c1ccccc1`, for which the “Growth Rate” value in the data set with Fibroblast (0 h, replicate number 2) was -0.73; with Fibroblast (6 h, replicate number 2), 0.61; in the data set with Fibroblast (24 h, replicate number 2), 0.93; in the data set on HEK-293T (6 h, replicate number 1), 0.43; in the data set with HEK-293T (12 h, replicate number 1) it was 0.82; in the data set with HEK-293T (18 h, replicate number 2) it was 0.82. Further, the “Growth Rate” value with HEK-293T (24 h, replicate number 2) is 0.89; with U2OS (0 h, replicate number 1), 0.88; with U2OS (0 h, replicate number 2), 0.18; with U2OS (6 h, replicate number 1), 0.68; in the data set on U2OS (12 h, replicate number 1), 0.93; in the data set with U2OS (24 h, replicate number 1), 0.92.

Turning to `CN(C)Cc1cccc(NC(=C2C(=O)Nc3cc(C(=O)N(C)C)ccc32)c2ccccc2)c1`, the “Growth Rate” value in the data set on Fibroblast (6 h, replicate number 1) was 0.08; in the data set on Fibroblast (12 h, replicate number 1) it was 0.68; in the data set with Fibroblast (18 h, replicate number 1) it was 0.68; in the data set with Fibroblast (24 h, replicate number 1), 0.47; in the data set with HEK-293T (24 h, replicate number 2), 0.95; in the data set with U2OS (6 h, replicate number 2), 0.99. Besides, the “Growth Rate” value in the data set with U2OS (12 h, replicate number 2) amounted to 0.73; in the data set with U2OS (18 h, replicate number 2), 0.82; in the data set on U2OS (24 h, replicate number 2), 0.8.

On to `C[C@@H]1Cc2c([nH]c3ccccc23)[C@@H](c2c(F)cc(/C=C/C(=O)O)cc2F)N1CC(C)(C)F` [AZD-9496], for which the “Growth Rate” value is listed as -0.38 in the data set on Fibroblast (6 h, replicate number 2); 0.62 with Fibroblast (12 h, replicate number 2); 0.88 in the data set on Fibroblast (18 h, replicate number 2); 0.65 with Fibroblast (24 h, replicate number 2); -0.59 with HEK-293T (0 h, replicate number 1); -0.31 with HEK-293T (0 h, replicate number 2). For the same compound, the “Growth Rate” value is given as 0.01 in the data set on U2OS (0 h, replicate number 1); 0.39 with U2OS (6 h, replicate number 1); 0.94 in the data set on U2OS (12 h, replicate number 1); 0.92 in the data set on U2OS (18 h, replicate number 1); 0.91 in the data set on U2OS (24 h, replicate number 1).

In the case of `O=C(Nc1ccc(Cl)nc1)c1ccc(Cl)cc1`, the “Growth Rate” value in the data set with Fibroblast (0 h, replicate number 1) was -0.21; in the data set with Fibroblast (0 h, replicate number 2) it was -0.9; with Fibroblast (6 h, replicate number 1), -0.32; with Fibroblast (24 h, replicate number 1) it was 0.54; in the data set with HEK-293T (6 h, replicate number 1), 0.33; with HEK-293T (6 h, replicate number 2), 0.16. The “Growth Rate” value is reported as 0.71 with HEK-293T (12 h, replicate number 1); 0.63 in the data set with HEK-293T (12 h, replicate number 2); 0.59 with HEK-293T (18 h, replicate number 1); 0.53 with HEK-293T (18 h, replicate number 2); 0.63 in the data set on HEK-293T (24 h, replicate number 1); 0.65 in the data set with HEK-293T (24 h, replicate number 2). Further, the “Growth Rate” value is recorded as -0.12 in the data set on U2OS (0 h, replicate number 1); -0.39 with U2OS (0 h, replicate number 2); 0.95 with U2OS (12 h, replicate number 1).

On to `Cc1cn(CCN2CCN(c3ccccc3-c3cc(C#N)cc(C(=O)NCCCN4CCCC4)c3)CC2)c2ccccc12`, for which the “Growth Rate” value in the data set on Fibroblast (6 h, replicate number 1) is -0.88; in the data set with Fibroblast (6 h, replicate number 2), -0.91; in the data set on Fibroblast (12 h, replicate number 1) it was -0.74; with Fibroblast (12 h, replicate number 2), -0.87; with Fibroblast (18 h, replicate number 1), -0.68; with Fibroblast (18 h, replicate number 2), -0.81. Further, the “Growth Rate” value in the data set on Fibroblast (24 h, replicate number 1) is listed as -0.66; with Fibroblast (24 h, replicate number 2), -0.71; in the data set on HEK-293T (0 h, replicate number 2) it was -1; in the data set with HEK-293T (6 h, replicate number 1), -0.62; in the data set on HEK-293T (6 h, replicate number 2) it was -0.59; in the data set with HEK-293T (12 h, replicate number 1) it was -0.46. Moreover, the “Growth Rate” value in the data set with HEK-293T (12 h, replicate number 2) was -0.49; in the data set with HEK-293T (18 h, replicate number 1), -0.45; with HEK-293T (18 h, replicate number 2) it was -0.47; in the data set on HEK-293T (24 h, replicate number 1), -0.38; with HEK-293T (24 h, replicate number 2), -0.39; in the data set on U2OS (0 h, replicate number 1), -1. In addition, the “Growth Rate” value with U2OS (0 h, replicate number 2) is given as -0.98; in the data set on U2OS (6 h, replicate number 1) it was -0.93; with U2OS (6 h, replicate number 2), -0.89; in the data set on U2OS (12 h, replicate number 1), -0.85; with U2OS (12 h, replicate number 2), -0.84; in the data set on U2OS (18 h, replicate number 1), -0.75. The “Growth Rate” value is given as -0.77 in the data set on U2OS (18 h, replicate number 2); -0.72 in the data set on U2OS (24 h, replicate number 1); -0.74 in the data set with U2OS (24 h, replicate number 2).

Consider `N#Cc1ccc(C#CC[C@@H](C#N)NC(=O)[C@@H]2CCCCN2)cc1F`, for which the “Growth Rate” value with Fibroblast (0 h, replicate number 1) is -1; in the data set on Fibroblast (0 h, replicate number 2), -0.9; with Fibroblast (6 h, replicate number 1), 0.62; with Fibroblast (12 h, replicate number 1), 0.89; in the data set with Fibroblast (12 h, replicate number 2), 1; in the data set on Fibroblast (18 h, replicate number 1), 0.73. Besides, the “Growth Rate” value turned out to be 0.9 in the data set on Fibroblast (18 h, replicate number 2); 0.74 in the data set with Fibroblast (24 h, replicate number 1); 0.68 in the data set with HEK-293T (0 h, replicate number 1); 0.76 in the data set on HEK-293T (6 h, replicate number 2); 0.89 in the data set on HEK-293T (12 h, replicate number 2); 0.67 in the data set with U2OS (0 h, replicate number 1). For the same compound, the “Growth Rate” value came out at 0.31 in the data set on U2OS (0 h, replicate number 2); 0.57 in the data set with U2OS (6 h, replicate number 1); 0.92 with U2OS (12 h, replicate number 1); 0.73 in the data set on U2OS (12 h, replicate number 2); 0.85 with U2OS (18 h, replicate number 2); 0.86 with U2OS (24 h, replicate number 2).

Regarding `CN(C1CCc2c(c3ccccc3n2CC(=O)O)C1)S(=O)(=O)c1ccc(F)cc1` (stereo not drawn), the “Growth Rate” value with Fibroblast (0 h, replicate number 1) is given as -0.98; in the data set with Fibroblast (0 h, replicate number 2), 0.14; in the data set with Fibroblast (6 h, replicate number 1) it was 0.47; in the data set with Fibroblast (6 h, replicate number 2), 0.23; in the data set on Fibroblast (18 h, replicate number 1), 0.85; with Fibroblast (18 h, replicate number 2) it was 0.96. Further, the “Growth Rate” value in the data set with Fibroblast (24 h, replicate number 1) is listed as 0.96; with HEK-293T (0 h, replicate number 1), 0.38; in the data set with U2OS (0 h, replicate number 1) it was 0.71; in the data set on U2OS (0 h, replicate number 2), 0.7; in the data set with U2OS (6 h, replicate number 1) it was 0.61; in the data set on U2OS (12 h, replicate number 2), 0.9. The “Growth Rate” value with U2OS (18 h, replicate number 2) is recorded as 0.93; in the data set on U2OS (24 h, replicate number 1), 0.87; in the data set on U2OS (24 h, replicate number 2), 0.92.

Regarding `CCOC(=O)c1c(/C(C#N)=C\N)c2ccc(Cl)c(Cl)c2n1C`, the “Growth Rate” value is reported as 0.55 in the data set on Fibroblast (0 h, replicate number 1); -0.96 with Fibroblast (6 h, replicate number 1); 0.88 with Fibroblast (12 h, replicate number 2); 0.7 in the data set with Fibroblast (18 h, replicate number 1); 0.75 with Fibroblast (24 h, replicate number 1); 0.9 in the data set with Fibroblast (24 h, replicate number 2). Moreover, the “Growth Rate” value in the data set with HEK-293T (0 h, replicate number 1) is 0.22; in the data set with U2OS (0 h, replicate number 1), -0.98; with U2OS (0 h, replicate number 2), 0.82; in the data set on U2OS (6 h, replicate number 1), 0.92; with U2OS (12 h, replicate number 1), 0.97; in the data set with U2OS (24 h, replicate number 1), 0.94.

For `Nc1nc2cc(-c3cc(Cl)ccc3Oc3cc(F)c(S(=O)(=O)Nc4ncns4)cc3F)ccc2[nH]1`, the “Growth Rate” value is on record as -0.38 with Fibroblast (0 h, replicate number 2); -0.93 with Fibroblast (6 h, replicate number 1); 0.45 in the data set with Fibroblast (24 h, replicate number 1); 0.9 in the data set with Fibroblast (24 h, replicate number 2); 0.66 with HEK-293T (0 h, replicate number 1); 0.52 with HEK-293T (0 h, replicate number 2). The “Growth Rate” value is -0.72 in the data set on U2OS (0 h, replicate number 1); 0.2 in the data set on U2OS (0 h, replicate number 2); 0.51 with U2OS (6 h, replicate number 1); 0.84 with U2OS (12 h, replicate number 1); 0.76 in the data set with U2OS (18 h, replicate number 1); 0.89 with U2OS (24 h, replicate number 1).

As to `COc1cc(Cl)c(C(=O)N[C@@H](CN[C@H]2CC[C@@H](N)CC2)Cc2ccc(C#N)cc2)cc1-c1ccc(CN[C@H](C)c2ccc(C)cc2)o1`, the “Growth Rate” value in the data set with Fibroblast (6 h, replicate number 1) is -0.93; with Fibroblast (6 h, replicate number 2), -0.83; in the data set with Fibroblast (12 h, replicate number 1), -0.8; with Fibroblast (12 h, replicate number 2), -0.82; with Fibroblast (18 h, replicate number 1), -0.76; with Fibroblast (18 h, replicate number 2), -0.74. Besides, the “Growth Rate” value in the data set on Fibroblast (24 h, replicate number 1) is listed as -0.72; in the data set with Fibroblast (24 h, replicate number 2) it was -0.68; in the data set on HEK-293T (0 h, replicate number 2), -1; with HEK-293T (6 h, replicate number 1), -0.6; in the data set on HEK-293T (6 h, replicate number 2), -0.61; in the data set on HEK-293T (12 h, replicate number 1), -0.61. Also, the “Growth Rate” value with HEK-293T (12 h, replicate number 2) was -0.53; with HEK-293T (18 h, replicate number 1), -0.48; in the data set with HEK-293T (24 h, replicate number 1), -0.42; in the data set with HEK-293T (24 h, replicate number 2), -0.4; with U2OS (0 h, replicate number 1), -1; in the data set with U2OS (0 h, replicate number 2), -0.99. For the same compound, the “Growth Rate” value is recorded as -0.95 in the data set on U2OS (6 h, replicate number 1); -0.91 in the data set with U2OS (6 h, replicate number 2); -0.87 in the data set with U2OS (12 h, replicate number 1); -0.86 in the data set on U2OS (12 h, replicate number 2); -0.77 in the data set with U2OS (18 h, replicate number 1); -0.78 with U2OS (18 h, replicate number 2). Besides, the “Growth Rate” value is recorded as -0.74 in the data set with U2OS (24 h, replicate number 1) and -0.76 with U2OS (24 h, replicate number 2).
